For one assay, the target named is recombinant human GSK3β (Homo sapiens, UniProt P49841). Description: In vitro enzymatic assay for inhibition of GSK3β (Kinase-Glo Max luminescence). The class given is biochemical. Conditions: 10 uM ATP, 0.1 mg/ml GSKtide, 30° C. 40 minutes, read-out: Potency Beta. The procedure:
(§1) Enzymatic activities using recombinant human GSK3 using an in vitro enzymatic assay for inhibition GSK3α and GSK3β.
(§2) The assay was performed using Kinase-Glo Max luminescence kinase assay kit (Promega). It measures kinase activity by quantitating the amount of ATP remaining in solution following a kinase reaction. The luminescent signal from the assay is correlated with the amount of ATP present and is inversely correlated with the amount of kinase activity. The compounds were diluted in 10% DMSO and 5 μl of the dilution was added to a 50 μl reaction so that the final concentration of DMSO is 1% in all of reactions. The enzymatic reactions were conducted at 30° C. for 40 minutes. The 50 μl reaction mixture contains 40 mM Tris, pH 7.4, 10 mM MgCl2, 0.1 mg/ml BSA, 2 mM DTT, 0.1 mg/ml GSKtide substrate, 10 uM ATP and GSK3. After the enzymatic reaction, 50 μl of Kinase-Glo Max Luminescence kinase assay solution (Promega) was added to each reaction and incubate the plate for 15 minutes at room temperature. Luminescence signal was measured using a BioTek Synergy 2 microplate reader.
(§3) Kinase activity assays were performed in duplicate at each concentration. The luminescence data were analyzed using the computer software, Graphpad Prism. The difference between luminescence intensities in the absence of Kinase (Lut) and in the presence of Kinase (Luc) was defined as 100% activity (Lut−Luc). Using luminescence signal (Lu) in the presence of the compound, % activity was calculated as: % activity={(Lut−Lu)/(Lut−Luc)}×100%, where Lu=the luminescence intensity in the presence of the compound (all percent activities below zero were shown zero in the table).
(§4) The values of % activity versus a series of compound concentrations were then plotted using non-linear regression analysis of Sigmoidal dose-response curve generated with the equation Y=B+(T−B)/1+10((Log EC50−X)×Hill Slope), where Y=percent activity, B=minimum percent activity, T=maximum percent activity, X=logarithm of compound and Hill Slope=slope factor or Hill coefficient. The IC50 value was determined by the concentration causing a half-maximal percent activity.

In another assay the test system is Lgr5-positive cells. Description: Expansion of Lgr5-positive cells (cochlear stem cell expansion, 3D Matrigel culture, flow cytometry for Lgr5-GFP). The class given is cell-based, mouse. The note with it: for EC50: Mus musculus, 240 h, Lgr5-positive cell expansion, cochlear cells of neonatal Lgr5-EGFP-IRES-Cre-ER mice, 10 days in culture, read-out: Potency; for % of Cells: percentage of Lgr5-GFP-positive cells after 10 days (D10) in culture, flow cytometer. The procedure: Lgr5-EGFP-IRES-Cre-ER mice (Barker et al., 2007) (http://jaxmice.jax.org/strain/008875.html) are used to analyze the effects of small molecules on cochlear stem cell expansion.
Isolation of stem cells from the inner ear: All animal studies are conducted under an approved institutional protocol according to National Institutes of Health guidelines. For experiments with neonatal mice (postnatal days 1-3), the cochleae are dissected in HBSS and the organ of Corti are separated from the stria vascularis and the modiolus. The organs of Corti are then treated with Cell Recovery Solution (Corning) for 1 h to separate cochlear epithelium from the underlying mesenchyme. Epithelia are then collected and treated with TrypLE (Life Technologies) for 15-20 minutes at 37° C. Single cells obtained by mechanical trituration are filtered (40 μm) and suspended in Matrigel (Corning) for 3D culture.
Cells are cultured in a 1:1 mixture of DMEM and F12, supplemented with Glutamax (GIBCO), N2, B27 (Invitrogen), EGF (50 ng/ml; Chemicon), bFGF (50 ng/ml; Chemicon), IGF1 (50 ng/ml; Chemicon) and the composition provided herein. Media are changed every other day.
Lgr5-positive cells are quantified after 10 days (D10) in culture in multiple conditions. Cell colonies are dissociated into single cells using TrypLE (Gibco). The cells are then stained with propidium iodide (PI) and are analyzed using a flow cytometer for Lgr5-GFP expression. The number of GFP-positive cells and the percentage of GFP-positive cells are quantified.

Another assay deals with recombinant human GSK3α (Homo sapiens, UniProt P49840). Description: In vitro enzymatic assay for inhibition of GSK3α (Kinase-Glo Max luminescence). The assay is classed as biochemical. Conditions: 10 uM ATP, 0.1 mg/ml GSKtide, 30° C. 40 minutes, read-out: Potency Alpha. The procedure:
as §1, §2, §3, §4

Bounds are passed on as bounds.

recombinant human GSK3β, sequence (P49841 whole entry): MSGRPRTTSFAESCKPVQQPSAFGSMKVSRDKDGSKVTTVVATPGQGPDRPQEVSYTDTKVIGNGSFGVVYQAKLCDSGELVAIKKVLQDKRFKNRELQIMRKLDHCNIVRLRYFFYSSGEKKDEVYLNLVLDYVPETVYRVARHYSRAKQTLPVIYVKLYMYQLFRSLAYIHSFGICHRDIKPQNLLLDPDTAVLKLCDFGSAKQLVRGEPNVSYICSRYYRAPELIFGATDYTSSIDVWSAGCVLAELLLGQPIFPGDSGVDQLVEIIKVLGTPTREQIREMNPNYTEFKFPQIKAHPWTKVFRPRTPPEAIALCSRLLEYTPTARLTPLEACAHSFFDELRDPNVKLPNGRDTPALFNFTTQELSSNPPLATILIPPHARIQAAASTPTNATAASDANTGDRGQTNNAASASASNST
recombinant human GSK3α, sequence (P49840 whole entry): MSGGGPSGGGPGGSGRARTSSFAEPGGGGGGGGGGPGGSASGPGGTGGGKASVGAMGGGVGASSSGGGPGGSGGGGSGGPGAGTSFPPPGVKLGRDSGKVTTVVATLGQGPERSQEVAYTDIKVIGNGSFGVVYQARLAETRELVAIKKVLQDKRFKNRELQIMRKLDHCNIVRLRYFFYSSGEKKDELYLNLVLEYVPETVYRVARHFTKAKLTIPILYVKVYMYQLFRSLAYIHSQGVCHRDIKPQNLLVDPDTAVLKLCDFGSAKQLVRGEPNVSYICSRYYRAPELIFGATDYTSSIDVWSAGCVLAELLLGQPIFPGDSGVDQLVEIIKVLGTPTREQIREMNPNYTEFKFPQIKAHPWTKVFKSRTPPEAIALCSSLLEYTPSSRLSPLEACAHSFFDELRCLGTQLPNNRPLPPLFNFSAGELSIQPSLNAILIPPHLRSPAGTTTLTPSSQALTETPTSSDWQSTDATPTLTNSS

Take `N#Cc1cc2c3c(c1)c(C1=C(c4cnc5ccccn45)C(=O)NC1=O)cn3CCN(C(=O)N1CCC(CO)CC1)C2` [Compound I-21]: the IC50 at recombinant human GSK3β lay in the range of 1 to 10 nM. In the assay on Lgr5-positive cells, the EC50 is over 1000 nM and the “% of Cells” value was “+++ (“+++” indicates greater than about 11%)”. Besides, the IC50 at recombinant human GSK3α was in the range of 1 to 10 nM.
On to `O=C1NC(=O)C(c2cnc3ccccn23)=C1c1cn2c3c(cc(F)cc13)CN(C(=O)N1CC(F)(F)C(F)(F)C(F)(F)C1)CC2` [Compound I-22], for which, at recombinant human GSK3β, the IC50 was 1 to 10 nM. In addition, in the assay with Lgr5-positive cells, the EC50 is 1 to 100 nM and the “% of Cells” value is recorded as “++ (“++” indicates about 6-10%)”. Further, the IC50 at recombinant human GSK3α was in the range of 1 to 10 nM.
Consider `O=C1NC(=O)C(c2cnc3ccccn23)=C1c1cn2c3c(cc(F)cc13)CN(C(=O)N1CC(F)(F)OC(F)(F)C1)CC2` [Compound I-24], for which the IC50 at recombinant human GSK3β was 1 to 10 nM. Further, in the assay with Lgr5-positive cells, the EC50 lay within 1 to 100 nM and the “% of Cells” value is “++ (“++” indicates about 6-10%)”. In addition, the IC50 at recombinant human GSK3α was 1 to 10 nM.
On to `O=C1NC(=O)C(c2cnc3ccccn23)=C1c1cn2c3c(cc(F)cc13)CN(C(=O)N1CCOCC(F)(F)C1)CC2` [Compound I-27], for which the IC50 on recombinant human GSK3β lay in the range of 1 to 10 nM. Moreover, in the assay with Lgr5-positive cells, the EC50 is 1 to 100 nM and the “% of Cells” value is on record as “+++ (“+++” indicates greater than about 11%)”. Further, the IC50 on recombinant human GSK3α was in the range of 1 to 10 nM.
With `O=C1NC(=O)C(c2cnc3ccccn23)=C1c1cn2c3c(cc(F)cc13)CN(C(=O)N1CCC(C(O)C(F)(F)F)CC1)CC2` (stereo not drawn) [Compound I-31], the IC50 at recombinant human GSK3β lay within 1 to 10 nM. For the same compound, in the assay with Lgr5-positive cells, the EC50 was in the range of 1 to 100 nM and the “% of Cells” value is reported as “+++ (“+++” indicates greater than about 11%)”. Besides, the IC50 on recombinant human GSK3α was 1 to 10 nM.
In the case of `CNCC1CCN(C(=O)N2CCn3cc(C4=C(c5cnc6ccccn56)C(=O)NC4=O)c4cc(F)cc(c43)C2)CC1` [Compound I-32], the IC50 at recombinant human GSK3β was in the range of 1 to 10 nM. In the assay with Lgr5-positive cells, the EC50 is over 1000 nM and the “% of Cells” value was “+++ (“+++” indicates greater than about 11%)”. On recombinant human GSK3α, the IC50 lay in the range of 1 to 10 nM.
On to `CN(C)CC1CCN(C(=O)N2CCn3cc(C4=C(c5cnc6ccccn56)C(=O)NC4=O)c4cc(F)cc(c43)C2)CC1` [Compound I-33], for which the IC50 on recombinant human GSK3β fell in the range of 1 to 10 nM. Moreover, in the assay on Lgr5-positive cells, the EC50 lay in the range of 100 to 1000 nM and the “% of Cells” value is listed as “+++ (“+++” indicates greater than about 11%)”. Also, the IC50 on recombinant human GSK3α was 1 to 10 nM.
Take `NC1CCN(C(=O)N2CCn3cc(C4=C(c5cnc6ccccn56)C(=O)NC4=O)c4cc(F)cc(c43)C2)CC1` [Compound I-34]: the IC50 on recombinant human GSK3β was 1 to 10 nM. In addition, in the assay on Lgr5-positive cells, the EC50 was over 1000 nM and the “% of Cells” value is “++ (“++” indicates about 6-10%)”. For the same compound, the IC50 on recombinant human GSK3α lay within 1 to 10 nM.
Take `CNC1CCN(C(=O)N2CCn3cc(C4=C(c5cnc6ccccn56)C(=O)NC4=O)c4cc(F)cc(c43)C2)CC1` [Compound I-35]: the IC50 on recombinant human GSK3β was in the range of 1 to 10 nM. Further, in the assay with Lgr5-positive cells, the EC50 was over 1000 nM and the “% of Cells” value was “+ (“+” indicates about 0-5%)”. The IC50 at recombinant human GSK3α lay in the range of 1 to 10 nM.
For the compound `O=C1NC(=O)C(c2cnc3ccccn23)=C1c1cn2c3c(cc(F)cc13)CN(C(=O)NCC1CCNCC1)CC2` [Compound I-37], the IC50 on recombinant human GSK3β and at recombinant human GSK3α was 1 to 10 nM throughout. Moreover, the EC50 in the assay with Lgr5-positive cells was over 1000 nM. The “% of Cells” value with Lgr5-positive cells was “+ (“+” indicates about 0-5%)”.
For the compound `CN(CC1CCNCC1)C(=O)N1CCn2cc(C3=C(c4cnc5ccccn45)C(=O)NC3=O)c3cc(F)cc(c32)C1` [Compound I-38], the IC50 at recombinant human GSK3β was 1 to 10 nM. In addition, in the assay on Lgr5-positive cells, the EC50 is over 1000 nM and the “% of Cells” value is reported as “+ (“+” indicates about 0-5%)”. At recombinant human GSK3α, the IC50 lay within 1 to 10 nM.
As to `CN1CC2CC1CN2C(=O)N1CCn2cc(C3=C(c4cnc5ccccn45)C(=O)NC3=O)c3cc(F)cc(c32)C1` (stereo not drawn) [Compound I-40], the IC50 on recombinant human GSK3β fell in the range of 1 to 10 nM. Also, in the assay with Lgr5-positive cells, the EC50 is over 1000 nM and the “% of Cells” value is recorded as “+ (“+” indicates about 0-5%)”. In addition, the IC50 on recombinant human GSK3α was 1 to 10 nM.

The record behind these values is patent publication US11066419B2, “1H-pyrrole-2,5-dione compounds and methods of using same” (Frequency Therapeutics, Inc., priority 2016, dated 2021).
